Measured values: patent US20200315996A1 (Board of Trustees, Southern Illinois University, priority 2016, published 2020)

Tests used:
[1] = tested on: endometriotic lesions; assay: Mouse model of endometriosis, growth of implanted endometriotic lesions (Study 1); assay type: in vivo, mice; details: for lesion weight / lesion volume: 3 weeks; for lesion weight: controls 0.044±0.007 g; for lesion volume: controls 40.1±6.6 mm3; for total weight of lesions: controls 154.0±29.3 mg
From the text: An experimental mouse model of endometriosis was established adopting procedures described previously with some modification [Han, 2012; Hirata, 2005; Kulak, 2011; Pelch, 2012; Zhao, 2014]. Female, eight week old B6-GFP mice were used as donor mice. These mice are transgenic mice whose cells endogenously express a green fluorescent protein (GFP) which is detectable under fluorescent light. When implanted to a GFP-negative recipient mouse, tissue implants from GFP-positive donor mice can be distinguished from the tissues of the recipient mice. Ectopic GFP-positive lesions were microscopically examined to evaluate the implants for accurate growth and progression. Briefly, the uterine horns were removed from donor mice during the diestrus stage of the reproductive cycle. […] Then, the uterine pieces were maintained in warmed DMEM/F12 medium (#10-090, Corning). […] The recipient mice were selected during the diestrus stage and anesthetized. In each mouse, a longitudinal abdominal incision was made, and uterine pieces from donor mice were sutured to the right or left side of the peritoneal walls of each animal (implanting each 2-mm and 3-mm piece per side) using a 6-0 braided silk suture (# SUT-1073-11, Roboz). Then, the abdominal incision was closed with a 4-0 braided silk suture (# SUT-1073-31, Roboz). […] Uterine tissue pieces of B6-GFP mice (donor) were implanted into the peritoneal walls of recipient mice. […] The lesion volume was calculated according to the formula (L×W^2), where L is length and W is width [[…], 2007].

[2] = tested on: MKI67 (Ki67); assay: Immunohistochemistry of endometriotic lesions, MKI67 (cell proliferation); assay type: in vivo, mice; details: 3 weeks; for % of MKI67 positive cells/total cells/0.007 mm^2, Stroma: control 13.8 ± 1.4
From the text: The presence and location of different proteins in the tissues obtained from the recipient mice. Samples of uterine tissue were isolated from the recipient mice, fixed by standard histological methods, and embedded in paraffin. Thin sections (5 μm) of the paraffin-embedded tissues were screened with standard immunohistochemical methods using antibodies to identify the expression of in the uterine tissues.
Primary antibodies that recognized MKI67 (Ki67), PECAM1 (CD31), ESR1, PGR, p-CHUK (IKK), p-STAT3, NOS2 (iNOS) and PTGS2 (COX2), and Vectastain Elite ABC Kit (# PK-6101), Mouse on Mouse Basic Kit (# BMK-2202, Vector laboratories) or DyLight-conjugated secondary antibody (#711-516-152, Jackson ImmunoResearch Lab) were used to show the presence of the proteins in the tissues, which were examined under microscopes.
The primary antibodies used in these analyses were: anti-MKI67 (Ki67, 1:200 dilution, 550609, BD Biosciences), anti-PECAM1 (CD31, 1:100 dilution, ab28364, Abcam), anti-ESR1 (1:100 dilution, sc-542, Santa Cruz Biotechnology), anti-PGR (1:200 dilution, RB-9017-P0, Thermo Scientific), anti-p-CHUK (IKK, 1:150 dilution, 2697, Cell Signaling Technology), anti-p-STAT3 (1:50 dilution, 9145, Cell Signaling Technology), anti-NOS2 (iNOS, 1:50 dilution, 610333, BD Biosciences) and anti-PTGS2 (COX2, 1:50 dilution, RM-9121, Thermo Scientific).
(§1) The expression of MKI67, ESR1, PGR, p-CHUK, p-STAT3, NOS2 and PTGS2 proteins in uterine tissues, as determined by immunohistochemical analysis of uterine tissue sections, was semiquantitatively analyzed. Levels of apoptosis were analyzed by TUNEL assay and also semiquantitatively analyzed. Histological sections were obtained from 4 different lesions. For each section, three different areas measuring 0.007 mm^2 were chosen. In each of those areas, the total number of epithelial or stromal cells was counted, as was the number of cells that tested positive for expressing MKI67 (a marker of cellular proliferation), steroid receptors ESR1 and PGR, and inflammatory signaling molecules p-CHUK, p-STAT3, NOS2 and PTGS2 proteins.

[3] = tested on: p-CHUK (IKK); assay: Immunohistochemistry of endometriotic lesions, p-CHUK; assay type: in vivo, mice; details: 3 weeks
From the text: as §1, with “The presence and location of different proteins in the tissues obtained from the recipient mice. Samples of uterine tissue were isolated from the recipient mice, fixed by standard histological methods, and embedded in paraffin. Thin sections (5 μm) of the paraffin-embedded tissues were screened with standard immunohistochemical methods using antibodies to identify the expression of in the uterine tissues. […] The expression” for “The expression”, “semiquantitatively analyzed. […] Histological sections” for “semiquantitatively analyzed. Histological sections”

[4] = tested on: p-STAT3; assay: Immunohistochemistry of endometriotic lesions, p-STAT3; assay type: in vivo, mice; details: 3 weeks; for % of p-STAT3 positive cells/total cells/0.007 mm^2, Stroma: control 11.5 ± 4.4
From the text: as §1, with “The presence and location of different proteins in the tissues obtained from the recipient mice. Samples of uterine tissue were isolated from the recipient mice, fixed by standard histological methods, and embedded in paraffin. Thin sections (5 μm) of the paraffin-embedded tissues were screened with standard immunohistochemical methods using antibodies to identify the expression of in the uterine tissues. […] The expression” for “The expression”, “semiquantitatively analyzed. […] Histological sections” for “semiquantitatively analyzed. Histological sections”

[5] = rats; cited from earlier work

Structure (SMILES): O=C(Nc1ccc([N+](=O)[O-])cc1Cl)c1cc(Cl)ccc1O [niclosamide, 5-chloro-N-(2-chloro-4-nitrophenyl)-2-hydroxybenzamide]
- lesion weight ([1]; 100 mg/kg b.w./day oral): 0.023 ± 0.004 g
- lesion volume ([1]; 100 mg/kg b.w./day oral, no significant difference): 23.15±5.0 mm3
- lesion weight ([1]; 200 mg/kg b.w./day oral): 0.016 ± 0.003 g
- lesion volume ([1]; 200 mg/kg b.w./day oral): 7.4±0.8 mm3
- number of lesions between treatment groups ([1]; oral 50, 100 or 200 mg/kg b.w. vs controls): did not differ
- total weight of lesions ([1]; oral niclosamide 50 mg/kg b.w., n=7): 114.9 ± 31.6 mg
- total weight of lesions ([1]; oral niclosamide 100 mg/kg b.w., n=9): 76.2 ± 18.3 mg
- total weight of lesions ([1]; oral niclosamide 200 mg/kg b.w., n=20): 44.9 ± 7.43 mg
- % of MKI67 positive cells/total cells/0.007 mm^2, Stroma ([2]; 100 mg/kg b.w./day oral): 10.9 ± 1.9%
- % of MKI67 positive cells/total cells/0.007 mm^2, Epithelium ([2]; 100 mg/kg b.w./day oral, control 61.6 ± 5.9, 100 mg/kg/day): 50.1±7.9%
- % of MKI67 positive cells/total cells/0.007 mm^2, Epithelium ([2]; 100 mg/kg b.w./day oral, control 61.6 ± 5.9, listed as Niclosamide, 100 mg/kg/day): 50.1 ± 7.9%
- % of MKI67 positive cells/total cells/0.007 mm^2, Stroma ([2]; 200 mg/kg b.w./day oral): 7.9 ± 1.9%
- % of MKI67 positive cells/total cells/0.007 mm^2, Epithelium ([2]; 200 mg/kg b.w./day oral, control 61.6 ± 5.9, p < 0.05, 200 mg/kg/day): 37.7±7.2%
- % of MKI67 positive cells/total cells/0.007 mm^2, Epithelium ([2]; 200 mg/kg b.w./day oral, control 61.6 ± 5.9, p < 0.05, listed as Niclosamide, 200 mg/kg/day): 37.7 ± 7.2 %
- % of p-CHUK positive cells/total cells/0.007 mm^2, Stroma ([3]; 100 mg/kg b.w./day oral, control 83.4 ± 4.7): 86.3 ± 4.0%
- % of p-CHUK positive cells/total cells/0.007 mm^2, Epithelium ([3]; 100 mg/kg b.w./day oral, control 97.9 ± 2.1): 92.3 ± 3.8%
- % of p-CHUK positive cells/total cells/0.007 mm^2, Stroma ([3]; 200 mg/kg b.w./day oral, control 83.4 ± 4.7, p < 0.01): 56.2 ± 8.3 %
- % of p-CHUK positive cells/total cells/0.007 mm^2, Epithelium ([3]; 200 mg/kg b.w./day oral, control 97.9 ± 2.1, p < 0.05): 76.7 ± 9.2 %
- % of p-STAT3 positive cells/total cells/0.007 mm^2, Stroma ([4]; 100 mg/kg b.w./day oral): 6.9 ± 1.9%
- % of p-STAT3 positive cells/total cells/0.007 mm^2, Epithelium ([4]; 100 mg/kg b.w./day oral, control 54.1 ± 3.9): 59.0 ± 5.4%
- % of p-STAT3 positive cells/total cells/0.007 mm^2, Stroma ([4]; 200 mg/kg b.w./day oral): 4.1 ± 1.0%
- % of p-STAT3 positive cells/total cells/0.007 mm^2, Epithelium ([4]; 200 mg/kg b.w./day oral, control 54.1 ± 3.9, p < 0.001): 26.4 ± 3.8 %
- plasma half-life [5]: 7 h
